Source: US8377949B2, “Quinazolinedione chymase inhibitors” (Boehringer Ingelheim International GmbH, priority 2007, dated 2013)
Where “and” joins values, the source holds several entries; their conditions need not be identical. Identical values can stand only once.

Each compound was assayed against T1, Chymase (Homo sapiens, UniProt P23946) (assay: In vitro Assay for Inhibition of Chymase). Settings: 500 pM chymase, 100 nM rhodamine 110 peptide substrate, 1 hour at 28° C., fluorescence.
T1 sequence (P23946 22-247): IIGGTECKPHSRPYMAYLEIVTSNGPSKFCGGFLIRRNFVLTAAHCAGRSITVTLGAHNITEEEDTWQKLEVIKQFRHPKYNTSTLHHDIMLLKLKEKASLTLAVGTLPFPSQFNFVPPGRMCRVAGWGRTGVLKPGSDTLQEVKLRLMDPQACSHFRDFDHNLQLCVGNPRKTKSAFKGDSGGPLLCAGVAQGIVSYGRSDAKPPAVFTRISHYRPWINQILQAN
Format: biochemical
Experimental: In vitro Assay for Inhibition of Chymase
Chymase assays were performed in a total volume of 15 μL in Corning black opaque 384-well microtiter plates with a non-binding surface (Coming, N.Y.). The assay buffer was comprised of 20 mM Tris HCl pH 8.0, 50 mM NaCl, 0.01% CHAPS. The test compounds were serially diluted 3-fold with neat DMSO in a 96-well polypropylene plate from a 10 mM DMSO stock to give the 10 point dose response curve. 3 μL of the resulting DMSO solution were transferred to a 384-well polypropylene plate in duplicate, and 37 μL of assay buffer was added. Chymase was added to the assay plate in 3 uL of assay buffer followed by 2 uL of the appropriate compound dilution using a PlateMate Plus (Matrix Technologies Corp., Hudson, N.H.). The reaction was initiated by the addition of 10 uL rhodamine 110, bis-(succinoyl-L-alanyl-L-alanyl-L-prolyl-L-phenylalanylamide) (American Peptides, Sunnyvale, Calif.) in assay buffer containing 150 μM tris(2-carboxyethyl)phosphine (TCEP, Pierce Chemical, Rockford, Ill.) using a Multidrop (Thermo Electron Corp., Waltham, Mass.). Final assay concentrations were 500 pM chymase, 100 nM substrate, 100 μM TCEP, and 1% DMSO. The plates were incubated at 28° C. and 80% humidity for 1 hour, at which time the fluorescence was read on a Viewlux 1430 Microplate Imager (Perkin Elmer Life Sciences, Boston, Mass.) with 485 nm excitation, 530 nm emission, and a fluorescein dichroic mirror. The percentage of control values were calculated relative to assay blanks containing complete reaction minus chymase and a 100% control containing assay buffer with 1% DMSO in place of compound. IC50 values were obtained by fitting the data using XLFit4 (IDBS Software).

Compound | IC50
Cc1cccc2c1c(Cn1c(=O)n(CC3(C(=O)O)CCCCC3)c(=O)c3ccccc31)cn2C [1-[1-(1,4-Dimethyl-1H-indol-3-ylmethyl)-2,4-dioxo-1,4-dihydro-2H-quinazolin-3-ylmethyl]-cyclohexanecarboxylic acid] | 3 nM
CCC(C(=O)O)n1c(=O)c2ccccc2n(Cc2cn(C)c3cccc(C)c23)c1=O (stereo not shown) [2-[1-(1,4-Dimethyl-1H-indol-3-ylmethyl)-2,4-dioxo-1,4-dihydro-2H-quinazolin-3-yl]-butyric acid] | 4 nM
CCCCC(C(=O)O)n1c(=O)c2ccccc2n(Cc2cn(C)c3cccc(C)c23)c1=O (stereo not shown) [2-[1-(1,4-Dimethyl-1H-indol-3-ylmethyl)-2,4-dioxo-1,4-dihydro-2H-quinazolin-3-yl]-hexanoic acid] | 3 nM
CCCC(C(=O)O)n1c(=O)c2ccccc2n(Cc2cn(C)c3cccc(C)c23)c1=O (stereo not shown) [2-[1-(1,4-Dimethyl-1H-indol-3-ylmethyl)-2,4-dioxo-1,4-dihydro-2H-quinazolin-3-yl]-pentanoic acid] | 4 nM
CCCCC(CC(=O)O)n1c(=O)c2ccccc2n(Cc2cn(C)c3cccc(C)c23)c1=O (stereo not shown) [3-[1-(1,4-Dimethyl-1H-indol-3-ylmethyl)-2,4-dioxo-1,4-dihydro-2H-quinazolin-3-yl]-heptanoic acid] | 4 nM
CCC(CC(=O)O)n1c(=O)c2ccccc2n(Cc2nsc3cc(C)cc(C)c23)c1=O (stereo not shown) [3-[1-(4,6-Dimethyl-1,2-benzisothiazol-3-ylmethyl)-2,4-dioxo-1,4-dihydro-2H-quinazolin-3-yl]-pentanoic acid] | 2 nM
Cc1cccc2c1c(Cn1c(=O)n(CC(CC(=O)O)c3ccccc3)c(=O)c3ccccc31)cn2C (stereo not shown) [4-[1-(1,4-Dimethyl-1H-indol-3-ylmethyl)-2,4-dioxo-1,4-dihydro-2H-quinazolin-3-yl]-3-phenyl-butyric acid] | 3 nM
CC[C@H](C(=O)O)n1c(=O)c2ccccc2n(Cc2cn(C)c3cccc(C)c23)c1=O [(R)-2-[1-(1,4-Dimethyl-1H-indol-3-ylmethyl)-2,4-dioxo-1,4-dihydro-2H-quinazolin-3-yl]-butyric acid] | 1.4 nM
CCCC[C@H](C(=O)O)n1c(=O)c2ccccc2n(Cc2cn(C)c3cccc(C)c23)c1=O [(R)-2-[1-(1,4-Dimethyl-1H-indol-3-ylmethyl)-2,4-dioxo-1,4-dihydro-2H-quinazolin-3-yl]-hexanoic acid] | 3 nM and 0.8 nM
Cc1cccc2c1c(Cn1c(=O)n([C@H](C)C(=O)O)c(=O)c3ccccc31)cn2C [(R)-2-[1-(1,4-Dimethyl-1H-indol-3-ylmethyl)-2,4-dioxo-1,4-dihydro-2H-quinazolin-3-yl]-propionic acid] | 1.9 nM
CCCC[C@H](C(=O)O)n1c(=O)c2cc(OC)ccc2n(Cc2cn(C)c3cccc(C)c23)c1=O [(R)-2-[1-(1,4-Dimethyl-1H-indol-3-ylmethyl)-6-methoxy-2,4-dioxo-1,4-dihydro-2H-quinazolin-3-yl]-hexanoic acid] | 1.6 nM
CCCC[C@H](C(=O)O)n1c(=O)c2ccccc2n(Cc2nsc3cc(C)cc(C)c23)c1=O [(R)-2-[1-(4,6-Dimethyl-1,2-benzisothiazol-3-ylmethyl)-2,4-dioxo-1,4-dihydro-2H-quinazolin-3-yl]-hexanoic acid] | 3 nM
CCC[C@H](C(=O)O)n1c(=O)c2ccccc2n(Cc2cn(C)c3cc(C)cc(C)c23)c1=O [(R)-2-[2,4-Dioxo-1-(1,4,6-trimethyl-1H-indol-3-ylmethyl)-1,4-dihydro-2H-quinazolin-3-yl]-pentanoic acid] | 0.27 nM
Cc1cccc2c1c(Cn1c(=O)n([C@H](CC(=O)O)c3ccccc3)c(=O)c3ccccc31)cn2C [(R)-3-[1-(1,4-Dimethyl-1H-indol-3-ylmethyl)-2,4-dioxo-1,4-dihydro-2H-quinazolin-3-yl]-3-phenyl-propionic acid] | 1 nM
CC[C@H](CC(=O)O)n1c(=O)c2ccccc2n(Cc2cn(C)c3cccc(C)c23)c1=O [(R)-3-[1-(1,4-Dimethyl-1H-indol-3-ylmethyl)-2,4-dioxo-1,4-dihydro-2H-quinazolin-3-yl]-pentanoic acid] | 3.9 nM
Cc1cccc2c1c(Cn1c(=O)n([C@@H](C(=O)O)c3ccccc3)c(=O)c3ccccc31)cn2C [(R)-[1-(1,4-Dimethyl-1H-indol-3-ylmethyl)-2,4-dioxo-1,4-dihydro-2H-quinazolin-3-yl]-phenyl-acetic acid] | 1 nM

Compound | IC50
Cc1cc(C)c2c(Cn3c(=O)n([C@@H](C(=O)O)c4ccccc4)c(=O)c4ccccc43)nsc2c1 [(R)-[1-(4,6-Dimethyl-1,2-benzisothiazol-3-ylmethyl)-2,4-dioxo-1,4-dihydro-2H-quinazolin-3-yl]-phenyl-acetic acid] | 1.8 nM
CC[C@@H](C(=O)O)n1c(=O)c2ccccc2n(Cc2cn(C)c3cccc(C)c23)c1=O [(S)-2-[1-(1,4-Dimethyl-1H-indol-3-ylmethyl)-2,4-dioxo-1,4-dihydro-2H-quinazolin-3-yl]-butyric acid] | 1.7 nM
CCCC[C@@H](C(=O)O)n1c(=O)c2ccccc2n(Cc2cn(C)c3cccc(C)c23)c1=O [(S)-2-[1-(1,4-Dimethyl-1H-indol-3-ylmethyl)-2,4-dioxo-1,4-dihydro-2H-quinazolin-3-yl]-hexanoic acid] | 2 nM
CCC[C@@H](C(=O)O)n1c(=O)c2ccccc2n(Cc2cn(C)c3cccc(C)c23)c1=O [(S)-2-[1-(1,4-Dimethyl-1H-indol-3-ylmethyl)-2,4-dioxo-1,4-dihydro-2H-quinazolin-3-yl]-pentanoic acid] | 1.5 nM
Cc1cccc2c1c(Cn1c(=O)n([C@@H](C)C(=O)O)c(=O)c3ccccc31)cn2C [(S)-2-[1-(1,4-Dimethyl-1H-indol-3-ylmethyl)-2,4-dioxo-1,4-dihydro-2H-quinazolin-3-yl]-propionic acid] | 2.5 nM
CCCC[C@@H](C(=O)O)n1c(=O)c2cc(OC)ccc2n(Cc2cn(C)c3cccc(C)c23)c1=O [(S)-2-[1-(1,4-Dimethyl-1H-indol-3-ylmethyl)-6-methoxy-2,4-dioxo-1,4-dihydro-2H-quinazolin-3-yl]-hexanoic acid] | 2.6 nM
CCCC[C@@H](C(=O)O)n1c(=O)c2ccc(OC)cc2n(Cc2cn(C)c3cccc(C)c23)c1=O [(S)-2-[1-(1,4-Dimethyl-1H-indol-3-ylmethyl)-7-methoxy-2,4-dioxo-1,4-dihydro-2H-quinazolin-3-yl]-hexanoic acid] | 4.9 nM
CCCC[C@@H](C(=O)O)n1c(=O)c2cc(OC)ccc2n(Cc2nsc3cc(C)cc(C)c23)c1=O [(S)-2-[1-(4,6-Dimethyl-1,2-benzisothiazol-3-ylmethyl)-6-methoxy-2,4-dioxo-1,4-dihydro-2H-quinazolin-3-yl]-hexanoic acid] | 1.8 nM
CC[C@@H](CC(=O)O)n1c(=O)c2ccccc2n(Cc2cn(C)c3cccc(C)c23)c1=O [(S)-3-[1-(1,4-Dimethyl-1H-indol-3-ylmethyl)-2,4-dioxo-1,4-dihydro-2H-quinazolin-3-yl]-pentanoic acid] | 3.2 nM
CC[C@@H](CC(=O)O)n1c(=O)c2ccccc2n(Cc2nsc3cc(C)cc(C)c23)c1=O [(S)-3-[1-(4,6-Dimethyl-benzo[d]isothiazol-3-ylmethyl)-2,4-dioxo-1,4-dihydro-2H-quinazolin-3-yl]-pentanoic acid] | 3.7 nM
Cc1cc(C)c2c(Cn3c(=O)n([C@H](C(=O)O)c4ccc(Cl)cc4)c(=O)c4ccccc43)nsc2c1 [(S)-(4-Chloro-phenyl)-[1-(4,6-dimethyl-1,2-benzisothiazol-3-ylmethyl)-2,4-dioxo-1,4-dihydro-2H-quinazolin-3-yl]-acetic acid] | 0.92 nM
Cc1cccc2c1c(Cn1c(=O)n([C@H](C(=O)O)c3ccccc3)c(=O)c3ccccc31)cn2C [(S)-[1-(1,4-Dimethyl-1H-indol-3-ylmethyl)-2,4-dioxo-1,4-dihydro-2H-quinazolin-3-yl]-phenyl-acetic acid] | 2 nM
Cc1cc(C)c2c(Cn3c(=O)n([C@H](C(=O)O)c4ccccc4)c(=O)c4ccccc43)nsc2c1 [(S)-[1-(4,6-Dimethyl-1,2-benzisothiazol-3-ylmethyl)-2,4-dioxo-1,4-dihydro-2H-quinazolin-3-yl]-phenyl-acetic acid] | 1 nM
Cc1cccc2c1c(Cn1c(=O)n(C3(CC(=O)O)CCCCC3)c(=O)c3ccccc31)cn2C [{1-[1-(1,4-Dimethyl-1H-indol-3-ylmethyl)-2,4-dioxo-1,4-dihydro-2H-quinazolin-3-yl]-cyclohexyl}-acetic acid] | 3 nM
Cc1cccc2c1c(Cn1c(=O)n(CC3(CC(=O)O)CCCCC3)c(=O)c3ccccc31)cn2C [{1-[1-(1,4-Dimethyl-1H-indol-3-ylmethyl)-2,4-dioxo-1,4-dihydro-2H-quinazolin-3-ylmethyl]-cyclohexyl}-acetic acid] | 3 nM
